Measured values from US20030215462A1, “Use of UGT inhibitors to increase bioavailability” (priority 2001, published 2003).

How the values were obtained:
Type in all cases: biochemical
[1] = test system: T1, UGT enzymes of human liver microsomes; assay: Inhibition of 7-HFC glucuronidation in human liver microsomes; details: 7-HFC 50 μM, human liver microsomes 100 μg/ml, 15 min
T1 construct: percentage of control metabolism, 7-HFC glucuronidation; percentage of control metabolism, 7-HFC glucuronidation

[2] = test system: T2, UGT enzymes of human liver microsomes; assay: Inhibition of labetalol glucuronidation (LG1, LG2) in human liver microsomes; details: labetalol 50 μM; inhibitor 100 μM
T2 construct: residual metabolism (percentage of control), labetalol LG1; other: labetalol 50 μM; residual metabolism (percentage of control), labetalol LG1; residual metabolism (percentage of control), labetalol LG2; inhi
Method: Supernatants were analyzed by HPLC with fluorescence detection.
Compounds were eluted using a binary solvent gradient system where solvent A was 5:5:90 tetrahydrofuran-acetonitrile-(NH4)2HPO4 50 mM, while solvent B was 25:25:50 tetrahydrofuran-acetonitrile-(NH4)2HPO4 50 mM. Solvent flow rate was 0.75 ml/min and the column temperature was ambient. […] Labetalol and metabolites were measured by fluorescence detection using a Jasco model FP920 detector. Excitation and emission wavelengths were 370 nm 418 nm respectively. Retention times for salicylamide internal standard and labetalol were 6.6 min and 15.0 min respectively.

[3] = test system: UGT enzymes of human liver microsomes; assay: Inhibition of raloxifene glucuronidation (G1, G2) in human liver microsomes; details: inhibitor 500 μM, raloxifene 50 μM, human liver microsomes 250 μg/ml, 15 min
Description: Compounds were eluted using a binary solvent gradient system. […] Solvent B was methanol. […] Detection was at 280 nm.

[4] = target: T3, UGT enzymes of human liver microsomes (Homo sapiens, UniProt P16662); assay: Inhibition of zidovudine glucuronidation in human liver microsomes; details: liver lot 062101; inhibitor 500 μM
T3 construct: residual metabolism (percentage of control), zidovudine glucuronidation; other: liver lot 062101; residual metabolism (percentage of control), zidovudine glucuronidation; residual metabolism (percentage of control)
T3 sequence (P16662 1-529): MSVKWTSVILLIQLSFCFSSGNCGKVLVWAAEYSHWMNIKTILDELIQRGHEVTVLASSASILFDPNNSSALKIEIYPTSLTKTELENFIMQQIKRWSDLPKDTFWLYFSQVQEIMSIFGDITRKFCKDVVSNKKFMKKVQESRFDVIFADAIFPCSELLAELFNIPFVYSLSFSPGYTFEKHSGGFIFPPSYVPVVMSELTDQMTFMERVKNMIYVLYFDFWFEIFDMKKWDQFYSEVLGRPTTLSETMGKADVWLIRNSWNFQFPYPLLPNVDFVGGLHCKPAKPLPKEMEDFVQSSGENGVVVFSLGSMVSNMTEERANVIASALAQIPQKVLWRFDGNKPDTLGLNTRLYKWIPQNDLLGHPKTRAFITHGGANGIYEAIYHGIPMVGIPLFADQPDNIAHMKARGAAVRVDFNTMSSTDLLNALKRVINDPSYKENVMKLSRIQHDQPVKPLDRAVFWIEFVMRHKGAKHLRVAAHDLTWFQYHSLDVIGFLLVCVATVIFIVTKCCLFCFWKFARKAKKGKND
Method: Compounds were eluted using a binary solvent gradient system where solvent A was dilute phosphoric acid (pH 3) and solvent B was acetonitrile.
Standardized incubations utilized 500 μM zidovudine substrate, 1 mg/ml microsomal protein, 5 mM UDPGA and a 30 min incubation time. […] Int.

## Oc1cc(O)c2c(c1)O[C@H](c1cc(O)c(O)c(O)c1)[C@H](O)C2 [Epigallocatechin]
[1]; inhibitor 100 μM
  % of control metabolism (SD, n = 3), 7-HFC glucuronidation: 77 (1) %
[1]; inhibitor 200 μM
  % of control metabolism (SD, n = 3), 7-HFC glucuronidation: 90 (1) %
[1]; inhibitor 500 μM
  % of control metabolism (SD, n = 3), 7-HFC glucuronidation: 81 (4) %
[2]
  residual metabolism (percentage of control), labetalol LG1: 96 (7) %
  residual metabolism (percentage of control), labetalol LG2: 87 (5) %
[3]; G1
  % of control metabolism (SD, n = 3), raloxifene glucuronide G1: 65 (4) %
[3]; G2
  % of control metabolism (SD, n = 3), raloxifene glucuronide G2: 79 (4) %
[4]
  residual metabolism (percentage of control), zidovudine glucuronidation: 90 (3) %
